Data published in patent US20150105252A1, “SUBSTITUTED PYRAZOLES AS HERBICIDES” (E I DU PONT DE NEMOURS AND COMPANY, priority 2013, published 2015).

What was measured:
barnyardgrass [1] = experiment: Test A preemergence; type: in vivo, Echinochloa crus-galli; details: preemergence
Procedure, shortened: (§1)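 Scoring was visual, on a scale where 100 means complete control and 0 means no effect, comparing treated with untreated plants around 10 days post-application. Compounds in surfactant-containing non-phytotoxic solvent were sprayed onto soil preemergence or onto one- to two-leaf seedlings (2–10 cm) postemergence.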

crabgrass, large [2] = experiment: Test A preemergence; type: in vivo, Digitaria sanguinalis; details: preemergence
Procedure, shortened: as §1

foxtail, giant [3] = experiment: Test A preemergence; type: in vivo, Setaria faberii; details: preemergence
Procedure, shortened: as §1

morningglory [4] = experiment: Test A preemergence; type: in vivo, Ipomoea spp.; details: preemergence
Procedure, shortened: as §1

pigweed [5] = experiment: Test A preemergence; type: in vivo, Amaranthus retroflexus; details: preemergence
Procedure, shortened: as §1

velvetleaf [6] = experiment: Test A preemergence; type: in vivo, Abutilon theophrasti; details: preemergence
Procedure, shortened: as §1

wheat [7] = experiment: Test A preemergence; type: in vivo, Triticum aestivum; details: preemergence
Procedure, shortened: as §1

corn [8] = experiment: Test A preemergence; type: in vivo, Zea mays; details: preemergence
Procedure, shortened: as §1

barnyardgrass [9] = experiment: Test A postemergence; type: in vivo, Echinochloa crus-galli
Procedure, shortened: as §1

crabgrass, large [10] = experiment: Test A postemergence; type: in vivo, Digitaria sanguinalis
Procedure, shortened: as §1

foxtail, giant [11] = experiment: Test A postemergence; type: in vivo, Setaria faberii
Procedure, shortened: as §1

morningglory [12] = experiment: Test A postemergence; type: in vivo, Ipomoea spp.
Procedure, shortened: as §1

pigweed [13] = experiment: Test A postemergence; type: in vivo, Amaranthus retroflexus
Procedure, shortened: as §1

velvetleaf [14] = experiment: Test A postemergence; type: in vivo, Abutilon theophrasti
Procedure, shortened: as §1

wheat [15] = experiment: Test A postemergence; type: in vivo, Triticum aestivum
Procedure, shortened: as §1

corn [16] = experiment: Test A postemergence; type: in vivo, Zea mays
Procedure, shortened: as §1

rice = experiment: Test B flood; type: in vivo, Oryza sativa; details: 250 g ai/ha, visual rating on 0 to 100 scale (0 no effect, 100 complete control), 13 to 15 days
Procedure, shortened: (§2)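 Flooded-pot test: compound dosed into 3 cm of standing water above soil when plants had two leaves. Visual control ratings (0–100) versus untreated plants after 13–15 d.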

sedge, umbrella = experiment: Test B flood; type: in vivo, Cyperus difformis; details: 250 g ai/ha, visual rating on 0 to 100 scale (0 no effect, 100 complete control), 13 to 15 days
Procedure, shortened: as §2

ducksalad = experiment: Test B flood; type: in vivo, Heteranthera limosa; details: 250 g ai/ha, visual rating on 0 to 100 scale (0 no effect, 100 complete control), 13 to 15 days
Procedure, shortened: as §2

barnyardgrass [17] = experiment: Test B flood; type: in vivo, Echinochloa crus-galli; details: 250 g ai/ha, visual rating on 0 to 100 scale (0 no effect, 100 complete control), 13 to 15 days
Procedure, shortened: as §2

[18] = 125 g ai/ha, visual injury, 0 to 100 scale, approx. 10 days
[19] = 500 g ai/ha, visual injury after approx. 10 days, 0 to 100 scale (0 no effect, 100 complete control)
[20] = Postemergence, 125 g ai/ha, 0 to 100 scale, 0 no effect, 100 complete control
[21] = Postemergence, 500 g ai/ha, visual rating after approx. 10 days, 0 to 100 scale (0 no effect, 100 complete control)
[22] = postemergence, 125 g ai/ha, about 10 days, visual rating on 0 to 100 scale (0 no effect, 100 complete control)

Cc1cc(C(=O)Nc2ccc(F)cc2)nn1Oc1ccnc(C(F)(F)F)c1 [Compound 90]
40: Corn plant response rating (corn [8]; [19])
0: Barnyardgrass plant response rating (barnyardgrass [1]; [18]) | Barnyardgrass plant response rating (barnyardgrass [1]; [19]) | Crabgrass, Large plant response rating (crabgrass, large [2]; [18]) | Foxtail, Giant plant response rating (foxtail, giant [3]; [18]) | Morningglory plant response rating (morningglory [4]; [18]) | Pigweed plant response rating (pigweed [5]; [18]) | Velvetleaf plant response rating (velvetleaf [6]; [18]) | Velvetleaf plant response rating (velvetleaf [6]; [19]) | Wheat plant response rating (wheat [7]; [18]) | Corn plant response rating (corn [8]; [18]) | Barnyardgrass plant response rating (barnyardgrass [9]; [20]) | Barnyardgrass plant response rating (barnyardgrass [9]; [21]) | Crabgrass, Large plant response rating (crabgrass, large [10]; [21]) | Crabgrass, Large plant response rating (crabgrass, large [10]; [22]) | Foxtail, Giant plant response rating (foxtail, giant [11]; [21]) | Foxtail, Giant plant response rating (foxtail, giant [11]; [22]) | Morningglory plant response rating (morningglory [12]; [22]) | Pigweed plant response rating (pigweed [13]; [21]) | Pigweed plant response rating (pigweed [13]; [22]) | Velvetleaf plant response rating (velvetleaf [14]; [21]) | Velvetleaf plant response rating (velvetleaf [14]; [22]) | Wheat plant response rating (wheat [15]; [21]) | Wheat plant response rating (wheat [15]; [22]) | Corn plant response rating (corn [16]; [22]) | Plant response rating, Rice (rice) | Plant response rating, Sedge, Umbrella (sedge, umbrella) | Plant response rating, Ducksalad (ducksalad) | Plant response rating, Barnyardgrass (barnyardgrass [17])
30: Corn plant response rating (corn [16]; [21])
20: Crabgrass, Large plant response rating (crabgrass, large [2]; [19])
10: Foxtail, Giant plant response rating (foxtail, giant [3]; [19]) | Morningglory plant response rating (morningglory [4]; [19]) | Pigweed plant response rating (pigweed [5]; [19]) | Wheat plant response rating (wheat [7]; [19]) | Morningglory plant response rating (morningglory [12]; [21])

CCc1cc(C(=O)NC2CC2)nn1Cc1cccc(C(F)(F)F)n1 [Compound 91]
40: Pigweed plant response rating (pigweed [5]; [19]) | Pigweed plant response rating (pigweed [13]; [21])
0: Barnyardgrass plant response rating (barnyardgrass [1]; [18]) | Barnyardgrass plant response rating (barnyardgrass [1]; [19]) | Crabgrass, Large plant response rating (crabgrass, large [2]; [18]) | Foxtail, Giant plant response rating (foxtail, giant [3]; [18]) | Foxtail, Giant plant response rating (foxtail, giant [3]; [19]) | Morningglory plant response rating (morningglory [4]; [18]) | Morningglory plant response rating (morningglory [4]; [19]) | Pigweed plant response rating (pigweed [5]; [18]) | Velvetleaf plant response rating (velvetleaf [6]; [18]) | Velvetleaf plant response rating (velvetleaf [6]; [19]) | Wheat plant response rating (wheat [7]; [18]) | Wheat plant response rating (wheat [7]; [19]) | Corn plant response rating (corn [8]; [18]) | Corn plant response rating (corn [8]; [19]) | Barnyardgrass plant response rating (barnyardgrass [9]; [20]) | Crabgrass, Large plant response rating (crabgrass, large [10]; [22]) | Foxtail, Giant plant response rating (foxtail, giant [11]; [22]) | Wheat plant response rating (wheat [15]; [21]) | Wheat plant response rating (wheat [15]; [22]) | Corn plant response rating (corn [16]; [22]) | Plant response rating, Rice (rice) | Plant response rating, Sedge, Umbrella (sedge, umbrella) | Plant response rating, Ducksalad (ducksalad) | Plant response rating, Barnyardgrass (barnyardgrass [17])
20: Crabgrass, Large plant response rating (crabgrass, large [2]; [19]) | Morningglory plant response rating (morningglory [12]; [21]) | Pigweed plant response rating (pigweed [13]; [22])
10: Barnyardgrass plant response rating (barnyardgrass [9]; [21]) | Crabgrass, Large plant response rating (crabgrass, large [10]; [21]) | Foxtail, Giant plant response rating (foxtail, giant [11]; [21]) | Morningglory plant response rating (morningglory [12]; [22]) | Velvetleaf plant response rating (velvetleaf [14]; [21]) | Velvetleaf plant response rating (velvetleaf [14]; [22]) | Corn plant response rating (corn [16]; [21])

CCCc1cc(C(=O)Nc2ccc(F)cc2)nn1Oc1ccnc(C(F)(F)F)c1 [Compound 94]
0: Barnyardgrass plant response rating (barnyardgrass [1]; [18]) | Barnyardgrass plant response rating (barnyardgrass [1]; [19]) | Crabgrass, Large plant response rating (crabgrass, large [2]; [18]) | Crabgrass, Large plant response rating (crabgrass, large [2]; [19]) | Foxtail, Giant plant response rating (foxtail, giant [3]; [18]) | Foxtail, Giant plant response rating (foxtail, giant [3]; [19]) | Morningglory plant response rating (morningglory [4]; [18]) | Morningglory plant response rating (morningglory [4]; [19]) | Pigweed plant response rating (pigweed [5]; [18]) | Pigweed plant response rating (pigweed [5]; [19]) | Velvetleaf plant response rating (velvetleaf [6]; [18]) | Velvetleaf plant response rating (velvetleaf [6]; [19]) | Wheat plant response rating (wheat [7]; [18]) | Wheat plant response rating (wheat [7]; [19]) | Corn plant response rating (corn [8]; [18]) | Corn plant response rating (corn [8]; [19]) | Barnyardgrass plant response rating (barnyardgrass [9]; [20]) | Barnyardgrass plant response rating (barnyardgrass [9]; [21]) | Crabgrass, Large plant response rating (crabgrass, large [10]; [21]) | Crabgrass, Large plant response rating (crabgrass, large [10]; [22]) | Foxtail, Giant plant response rating (foxtail, giant [11]; [21]) | Foxtail, Giant plant response rating (foxtail, giant [11]; [22]) | Morningglory plant response rating (morningglory [12]; [21]) | Morningglory plant response rating (morningglory [12]; [22]) | Pigweed plant response rating (pigweed [13]; [21]) | Pigweed plant response rating (pigweed [13]; [22]) | Velvetleaf plant response rating (velvetleaf [14]; [21]) | Velvetleaf plant response rating (velvetleaf [14]; [22]) | Wheat plant response rating (wheat [15]; [21]) | Wheat plant response rating (wheat [15]; [22]) | Corn plant response rating (corn [16]; [21]) | Corn plant response rating (corn [16]; [22]) | Plant response rating, Rice (rice) | Plant response rating, Sedge, Umbrella (sedge, umbrella) | Plant response rating, Ducksalad (ducksalad) | Plant response rating, Barnyardgrass (barnyardgrass [17])

CCc1cc(C(=O)NCC(F)(F)C(F)(F)F)nn1Cc1ccnc(C(F)(F)F)c1 [Compound 102]
90: Barnyardgrass plant response rating (barnyardgrass [1]; [19]) | Foxtail, Giant plant response rating (foxtail, giant [3]; [18]) | Pigweed plant response rating (pigweed [5]; [18]) | Pigweed plant response rating (pigweed [5]; [19]) | Foxtail, Giant plant response rating (foxtail, giant [11]; [21])
80: Crabgrass, Large plant response rating (crabgrass, large [10]; [21]) | Pigweed plant response rating (pigweed [13]; [21])
10: Morningglory plant response rating (morningglory [4]; [18]) | Corn plant response rating (corn [8]; [18]) | Velvetleaf plant response rating (velvetleaf [14]; [22])
60: Crabgrass, Large plant response rating (crabgrass, large [2]; [18]) | Corn plant response rating (corn [8]; [19]) | Barnyardgrass plant response rating (barnyardgrass [9]; [21]) | Morningglory plant response rating (morningglory [12]; [21])
30: Wheat plant response rating (wheat [15]; [21]) | Corn plant response rating (corn [16]; [22])
50: Morningglory plant response rating (morningglory [4]; [19]) | Crabgrass, Large plant response rating (crabgrass, large [10]; [22]) | Foxtail, Giant plant response rating (foxtail, giant [11]; [22]) | Pigweed plant response rating (pigweed [13]; [22]) | Velvetleaf plant response rating (velvetleaf [14]; [21]) | Corn plant response rating (corn [16]; [21]) | Plant response rating, Sedge, Umbrella (sedge, umbrella) | Plant response rating, Ducksalad (ducksalad)
20: Barnyardgrass plant response rating (barnyardgrass [1]; [18]) | Barnyardgrass plant response rating (barnyardgrass [9]; [22])
40: Wheat plant response rating (wheat [7]; [19]) | Morningglory plant response rating (morningglory [12]; [22])
100: Crabgrass, Large plant response rating (crabgrass, large [2]; [19]) | Foxtail, Giant plant response rating (foxtail, giant [3]; [19]) | Velvetleaf plant response rating (velvetleaf [6]; [19])
0: Velvetleaf plant response rating (velvetleaf [6]; [18]) | Wheat plant response rating (wheat [7]; [18]) | Wheat plant response rating (wheat [15]; [22]) | Plant response rating, Rice (rice) | Plant response rating, Barnyardgrass (barnyardgrass [17])

CCCc1cc(-c2ccc(C(F)(F)F)cc2)nn1Cc1ccnc(C(F)(F)F)c1 [Compound 113]
100: Crabgrass, Large plant response rating (crabgrass, large [2]; [19]) | Foxtail, Giant plant response rating (foxtail, giant [3]; [19]) | Pigweed plant response rating (pigweed [5]; [18]) | Pigweed plant response rating (pigweed [5]; [19]) | Morningglory plant response rating (morningglory [12]; [21]) | Pigweed plant response rating (pigweed [13]; [21]) | Velvetleaf plant response rating (velvetleaf [14]; [21])
20: Barnyardgrass plant response rating (barnyardgrass [1]; [18]) | Barnyardgrass plant response rating (barnyardgrass [9]; [21]) | Crabgrass, Large plant response rating (crabgrass, large [10]; [22]) | Foxtail, Giant plant response rating (foxtail, giant [11]; [22]) | Wheat plant response rating (wheat [15]; [21]) | Wheat plant response rating (wheat [15]; [22]) | Corn plant response rating (corn [16]; [21]) | Corn plant response rating (corn [16]; [22])
60: Barnyardgrass plant response rating (barnyardgrass [1]; [19]) | Pigweed plant response rating (pigweed [13]; [22]) | Plant response rating, Ducksalad (ducksalad)
40: Morningglory plant response rating (morningglory [4]; [18]) | Velvetleaf plant response rating (velvetleaf [6]; [19]) | Crabgrass, Large plant response rating (crabgrass, large [10]; [21]) | Foxtail, Giant plant response rating (foxtail, giant [11]; [21]) | Morningglory plant response rating (morningglory [12]; [22]) | Velvetleaf plant response rating (velvetleaf [14]; [22]) | Plant response rating, Barnyardgrass (barnyardgrass [17])
30: Velvetleaf plant response rating (velvetleaf [6]; [18]) | Wheat plant response rating (wheat [7]; [19]) | Plant response rating, Rice (rice)
10: Wheat plant response rating (wheat [7]; [18]) | Corn plant response rating (corn [8]; [18]) | Corn plant response rating (corn [8]; [19]) | Barnyardgrass plant response rating (barnyardgrass [9]; [22])
80: Crabgrass, Large plant response rating (crabgrass, large [2]; [18]) | Foxtail, Giant plant response rating (foxtail, giant [3]; [18])
70: Morningglory plant response rating (morningglory [4]; [19]) | Plant response rating, Sedge, Umbrella (sedge, umbrella)
